The experiment has as its target T1, SIRT1 (Homo sapiens, UniProt Q96EB6).
T1 sequence (Q96EB6 1-747): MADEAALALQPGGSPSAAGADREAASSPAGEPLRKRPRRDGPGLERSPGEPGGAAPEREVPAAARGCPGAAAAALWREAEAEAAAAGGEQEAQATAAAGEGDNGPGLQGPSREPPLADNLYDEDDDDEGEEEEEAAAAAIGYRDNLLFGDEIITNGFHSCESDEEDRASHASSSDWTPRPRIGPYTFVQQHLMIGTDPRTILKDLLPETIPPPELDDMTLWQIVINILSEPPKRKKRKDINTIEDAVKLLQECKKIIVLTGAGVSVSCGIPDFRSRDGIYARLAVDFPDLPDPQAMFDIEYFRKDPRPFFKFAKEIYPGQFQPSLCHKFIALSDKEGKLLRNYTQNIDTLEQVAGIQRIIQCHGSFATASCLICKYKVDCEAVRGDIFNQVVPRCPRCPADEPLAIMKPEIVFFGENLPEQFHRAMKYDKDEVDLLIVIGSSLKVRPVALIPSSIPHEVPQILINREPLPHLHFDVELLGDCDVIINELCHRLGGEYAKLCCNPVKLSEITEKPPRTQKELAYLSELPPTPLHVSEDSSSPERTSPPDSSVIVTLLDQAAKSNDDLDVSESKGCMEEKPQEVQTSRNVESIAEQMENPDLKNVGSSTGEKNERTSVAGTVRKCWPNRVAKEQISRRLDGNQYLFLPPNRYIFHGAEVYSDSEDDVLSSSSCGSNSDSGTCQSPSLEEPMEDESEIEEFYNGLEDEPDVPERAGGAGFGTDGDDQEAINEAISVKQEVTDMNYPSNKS
Briefly: Mass spectrometry based SIRT1 deacetylase activation assay (acetylated p53-derived peptide substrate). It counts as biochemical.

Where [1] appears, read: 0.5 μM peptide substrate, 120 μM βNAD+, 10 nM SIRT1, 25 min at 25° C.
Setting [2] is: 0.5 μM peptide substrate, 120 μM βNAD+, 10 nM SIRT1, 25 min at 25° C., read-out: EC1.5.
Setting [3] is: 0.5 μM peptide substrate, 120 μM βNAD+, 10 nM SIRT1, 25 minutes at 25° C.

Read-outs that look alike come from different tables or passages of the source.

The text below walks through data of patent publication US8846947B2, “Benzimidazoles and related analogs as sirtuin modulators” (GlaxoSmithKline LLC, priority 2008, dated 2014).

For `Cc1cc(NC(=O)c2cccc3[nH]c(-c4ccc(Cl)cc4C(F)(F)F)nc23)no1` [Compound 452], the “Fold Act. (percent maximum fold activation)” value under setting [1] is on record as “A (Fold activation >200%)”. Under setting [2], the EC1.5 was below 1000 nM.

Turning to `Cc1cc(NC(=O)c2cccc3[nH]c(-c4cc(F)ccc4C(F)(F)F)nc23)no1` [Compound 455], under setting [1], the “Fold Act. (percent maximum fold activation)” value is given as “A (Fold activation >200%)”. Under setting [2], the EC1.5 was below 1000 nM.

Turning to `Cc1cc(-c2nc3c(C(=O)Nc4nccs4)cccc3[nH]2)no1` [Compound 230], the EC1.5 entry was “A (EC1.5<1.0 uM)” and the “Fold Act. (percent maximum fold activation)” value is reported as “B (Fold Activation <200%)”.

For the compound `O=C(NCc1ccccn1)c1cccc2[nH]c(-c3ccccc3C(F)(F)F)nc12` [Compound 420], under setting [1], the “Fold Act. (percent maximum fold activation)” value is recorded as “A (Fold activation >200%)”. Besides, the EC1.5 under setting [2] fell in the range of 1000 to 25000 nM.

As to `Cc1cc(C)nc(NC(=O)c2cccc3[nH]c(-c4ccccc4C(F)(F)F)nc23)c1` [Compound 345], the EC1.5 result is given as “A (EC1.5<1.0 uM)” and the “Fold Act. (percent maximum fold activation)” value is recorded as “A (Fold activation >200%)”.

With `Cc1cc(Cl)cc(-c2nc3c(C(=O)Nc4nccs4)cccc3[nH]2)c1OCCN1CCOCC1` [Compound 505], under setting [1], the “Fold Act. (percent maximum fold activation)” value is “A (Fold activation >200%)”. Also, the EC1.5 under setting [2] lay in the range of 1000 to 25000 nM.

On to `Cc1cc(NC(=O)c2cccc3[nH]c(-c4ccc(N5CCOCC5)cc4C(F)(F)F)nc23)n(C)n1` [Compound 592], for which, under setting [1], the “Fold Act. (percent maximum fold activation)” value is “A (Fold activation >200%)”. Besides, the EC1.5 under setting [2] is below 1000 nM.

On to `O=C(Nc1cccnn1)c1cc(N2CCOCC2)cc2[nH]c(-c3ccc(F)cc3C(F)F)nc12` [Compound 752], for which, under setting [3], the EC1.5 result was “A (EC1.5<1.0 uM)” and the “Fold Act. (percent maximum fold activation)” value was “A (Fold activation >200%)”.

On to `O=C(NCc1ccccn1)c1cccc2[nH]c(-c3cccc(C(F)(F)F)c3)nc12` [Compound 252], for which the EC1.5 entry is “B (EC1.5 1-25 uM)” and the “Fold Act. (percent maximum fold activation)” value is “A (Fold activation >200%)”.

Take `O=C(Nc1ccccn1)c1cccc2[nH]c(-c3ccccc3OCCN3CCC(F)(F)C3)nc12` [Compound 615]: under setting [3], the EC1.5 result is reported as “C (EC1.5 >25 uM)” and the “Fold Act. (percent maximum fold activation)” value is recorded as “B (Fold Activation <200%)”.

As to `O=C(Nc1cccnc1)c1cccc2[nH]c(-c3cccc(N4CCCCC4)n3)nc12` [Compound 390], the EC1.5 result is given as “B (EC1.5 1-25 uM)” and the “Fold Act. (percent maximum fold activation)” value was “B (Fold Activation <200%)”.

In the case of `CC1(C)CN(CCOc2ccccc2-c2nc3c(C(=O)Nc4ccccn4)cccc3[nH]2)CCO1` [Compound 712], under setting [3], the EC1.5 entry was “B (EC1.5 1-25 uM)” and the “Fold Act. (percent maximum fold activation)” value is on record as “B (Fold Activation <200%)”.

With `O=C(Nc1nccs1)c1cccc2[nH]c(-c3ccnc(N4CCNCC4)c3)nc12` [Compound 314], the EC1.5 entry is given as “B (EC1.5 1-25 uM)” and the “Fold Act. (percent maximum fold activation)” value is given as “A (Fold activation >200%)”.

Take `O=C(Nc1ccc(OC[C@@H](O)CO)cc1)c1cccc2[nH]c(-c3cccnc3)nc12` [Compound 753]: under setting [3], the EC1.5 entry is reported as “A (EC1.5<1.0 uM)” and the “Fold Act. (percent maximum fold activation)” value was “A (Fold activation >200%)”.

As for `O=C(Nc1nccs1)c1cccc2[nH]c(-c3cnccc3C(F)(F)F)nc12` [Compound 702], under setting [3], the EC1.5 result was “A (EC1.5<1.0 uM)” and the “Fold Act. (percent maximum fold activation)” value is given as “A (Fold activation >200%)”.

As for `O=C(Nc1cccc(OCC(O)CO)c1)c1cccc2[nH]c(-c3cc(F)ccc3C(F)(F)F)nc12` (stereo not shown) [Compound 480], under setting [1], the “Fold Act. (percent maximum fold activation)” value is given as “A (Fold activation >200%)”. Besides, the EC1.5 under setting [2] was below 1000 nM.

Take `O=C(Nc1ccccn1)c1cc(F)cc2[nH]c(-c3ccc(OC[C@@H](O)CO)cc3C(F)F)nc12` [Compound 840]: under setting [3], the EC1.5 entry is recorded as “A (EC1.5<1.0 uM)” and the “Fold Act. (percent maximum fold activation)” value is given as “A (Fold activation >200%)”.

In the case of `CN1CCOc2cc(-c3nc4c(C(=O)Nc5cccnc5)cccc4[nH]3)cnc21` [Compound 372], the EC1.5 result is recorded as “A (EC1.5<1.0 uM)” and the “Fold Act. (percent maximum fold activation)” value is “A (Fold activation >200%)”.

Consider `O=C(Nc1nccs1)c1cccc2[nH]c(-c3ccc(N4CCCC4)cc3C(F)(F)F)nc12` [Compound 572], for which the “Fold Act. (percent maximum fold activation)” value under setting [1] is reported as “A (Fold activation >200%)”. The EC1.5 under setting [2] was 1000 to 25000 nM.

As to `O=C(Nc1cccnc1)c1cccc2[nH]c(-c3cccc(C(F)(F)F)c3)nc12` [Compound 234], the EC1.5 result is reported as “A (EC1.5<1.0 uM)” and the “Fold Act. (percent maximum fold activation)” value was “A (Fold activation >200%)”.

`O=C(Nc1cccc2[nH]c(-c3cc(F)ccc3C(F)(F)F)nc12)c1ccccn1` [Compound 385]: the EC1.5 entry was “B (EC1.5 1-25 uM)” and the “Fold Act. (percent maximum fold activation)” value is “A (Fold activation >200%)”.

Consider `O=C(Nc1nccs1)c1cc(N2CCOCC2)cc2[nH]c(-c3ccccc3C(F)(F)F)nc12` [Compound 628, 6-morpholino-N-(thiazol-2-yl)-2-(2-(trifluoromethyl)phenyl)-1H-benzo[d]imidazole-4-carboxamide], for which, under setting [3], the EC1.5 entry was “A (EC1.5<1.0 uM)” and the “Fold Act. (percent maximum fold activation)” value is “A (Fold activation >200%)”.

Turning to `O=C(Nc1nccs1)c1cccc2[nH]c(-c3cc(F)ccc3OCCN3CCOCC3)nc12` [Compound 583], under setting [1], the “Fold Act. (percent maximum fold activation)” value is on record as “A (Fold activation >200%)”. In addition, under setting [2], the EC1.5 is 1000 to 25000 nM.

For the compound `O=C(Nc1cccnc1)c1cccc2[nH]c(-c3cccc(-c4nnn[nH]4)c3)nc12` [Compound 362], the EC1.5 entry is “A (EC1.5<1.0 uM)” and the “Fold Act. (percent maximum fold activation)” value was “A (Fold activation >200%)”.

`O=C(Nc1nccs1)c1cncc2[nH]c(-c3ccc(Cl)cc3C(F)(F)F)nc12` [Compound 648]: under setting [3], the EC1.5 entry is “A (EC1.5<1.0 uM)” and the “Fold Act. (percent maximum fold activation)” value was “A (Fold activation >200%)”.

For `O=C(Nc1nccs1)c1cccc2[nH]c(-c3ccccc3OCC(O)CO)nc12` (stereo not shown) [Compound 326], the EC1.5 result is given as “B (EC1.5 1-25 uM)” and the “Fold Act. (percent maximum fold activation)” value is “A (Fold activation >200%)”.

Consider `FC(F)(F)c1cccc(-c2nc3c(NCc4cccnc4)cccc3[nH]2)c1` [Compound 617], for which, under setting [3], the EC1.5 result was “B (EC1.5 1-25 uM)” and the “Fold Act. (percent maximum fold activation)” value is “B (Fold Activation <200%)”.

Consider `Cc1csc(NC(=O)c2cccc3[nH]c(-c4cccc(C(F)(F)F)c4)nc23)n1` [Compound 206], for which the EC1.5 entry is “B (EC1.5 1-25 uM)” and the “Fold Act. (percent maximum fold activation)” value was “A (Fold activation >200%)”.

As for `O=C(Nc1ccccn1)c1cc(N2CCOCC2)cc2[nH]c(-c3cc(F)ccc3C(F)(F)F)nc12` [Compound 645], under setting [3], the EC1.5 entry is “A (EC1.5<1.0 uM)” and the “Fold Act. (percent maximum fold activation)” value was “A (Fold activation >200%)”.

In the case of `Cc1nc(C)c(-c2nc3c(C(=O)Nc4ccc(OC[C@@H](O)CO)cc4)cccc3[nH]2)s1` [Compound 789], under setting [3], the EC1.5 result was “A (EC1.5<1.0 uM)” and the “Fold Act. (percent maximum fold activation)” value is given as “A (Fold activation >200%)”.

For `O=C(Nc1nccs1)c1cccc2[nH]c(-c3ccc(F)c(F)c3)nc12` [Compound 214], the EC1.5 entry was “C (EC1.5 >25 uM)” and the “Fold Act. (percent maximum fold activation)” value was “B (Fold Activation <200%)”.

`Cc1ncsc1-c1nc2c(C(=O)Nc3nccs3)cccc2[nH]1` [Compound 293]: the EC1.5 result is given as “B (EC1.5 1-25 uM)” and the “Fold Act. (percent maximum fold activation)” value is reported as “A (Fold activation >200%)”.

For `O=C(Nc1nccs1)c1cncc2[nH]c(-c3ccc(N4CCCC4)cc3C(F)F)nc12` [Compound 799], under setting [3], the EC1.5 entry is “A (EC1.5<1.0 uM)” and the “Fold Act. (percent maximum fold activation)” value is “A (Fold activation >200%)”.

Regarding `Cc1cnc(NC(=O)c2cncc3[nH]c(-c4ccc(Cl)cc4C(F)(F)F)nc23)s1` [Compound 652], under setting [3], the EC1.5 result is “A (EC1.5<1.0 uM)” and the “Fold Act. (percent maximum fold activation)” value was “A (Fold activation >200%)”.

With `O=C(Nc1ccccn1)c1cc(F)cc2[nH]c(-c3ccc(OC[C@H](O)CO)cc3C(F)F)nc12` [Compound 830], under setting [3], the EC1.5 result is reported as “A (EC1.5<1.0 uM)” and the “Fold Act. (percent maximum fold activation)” value is given as “A (Fold activation >200%)”.

For `O=C(Nc1ccc(CN2CCCC2)cn1)c1cccc2[nH]c(-c3ccccc3C(F)(F)F)nc12` [Compound 541], under setting [1], the “Fold Act. (percent maximum fold activation)” value is on record as “A (Fold activation >200%)”. Moreover, the EC1.5 under setting [2] was below 1000 nM.

For `O=C(Nc1ccncn1)c1cccc2[nH]c(-c3cccc(C(F)(F)F)c3)nc12` [Compound 277], the EC1.5 result is “B (EC1.5 1-25 uM)” and the “Fold Act. (percent maximum fold activation)” value is “A (Fold activation >200%)”.

As to `O=C(NC1CCOCC1)c1cccc2[nH]c(-c3ccccc3C(F)(F)F)nc12` [Compound 421], the “Fold Act. (percent maximum fold activation)” value under setting [1] is “B (Fold Activation <200%)”. Also, the EC1.5 under setting [2] was above 25000 nM.
